According to ChEMBL document CHEMBL6127087 (Eur J Med Chem, 2024):
Calls of active or inactive are those of the source. The rule behind the calls is not given here.

Tests used:
[1] = Tmax in male Sprague-Dawley rat at 20 mg/kg, po measured after 24 hrs by LC-MS/MS analysis; format: ADME, organism-based; details: male, Sprague-Dawley, in vivo, read-out: Tmax (converted)
Mus musculus [2] = assay: (§1) Anti-inflammatory activity in LPS-induced male C57BL/6 mouse model of acute […] injury assessed as reduction in neutrophil elastase level in BALF at 2 to 6 mg/kg, IG preadministered with compound for 7 days followed by LPS administration and measured after 24 hrs by ELISA; format: functional, organism-based; details: dose 2-6 mg/kg, time 8.0 day
[3] = Cmax in male Sprague-Dawley rat at 20 mg/kg, po measured after 24 hrs by LC-MS/MS analysis; format: ADME, organism-based; details: male, Sprague-Dawley, in vivo, read-out: Cmax
Mus musculus [4] = assay: (§2) Anti-inflammatory activity in LPS-induced male C57BL/6 mouse model of acute […] injury assessed as reduction in infiltration of immune cells by measuring decrease in neutrophil count at 2 to 6 mg/kg, IG preadministered with compound for 7 days followed by LPS administration and measured after 24 hrs; format: functional, organism-based; details: dose 2-6 mg/kg, time 8.0 day
Mus musculus [5] = assay: as §1, with “tissue destruction” for “neutrophil elastase level”, “lung” for “BALF”, “H and E staining based histopathological analysis” for “ELISA”; format: functional, organism-based; details: dose 2-6 mg/kg, time 8.0 day
Mus musculus [6] = assay: as §1, with “hyperemia of pulmonary alveolar septa” for “neutrophil elastase level”, “lung” for “BALF”, “H and E staining based histopathological analysis” for “ELISA”; format: functional, organism-based; details: dose 2-6 mg/kg, time 8.0 day
Mus musculus [7] = assay: (§3) Anti-inflammatory activity in LPS-induced male C57BL/6 mouse model of acute […] injury assessed as reduction in IL-1beta level in BALF at 2 to 6 mg/kg, IG preadministered with compound for 7 days followed by LPS administration and measured after 24 hrs by ELISA; format: functional, organism-based; details: dose 2-6 mg/kg, time 8.0 day
[8] = Half-life in male Sprague-Dawley rat at 10 mg/kg, iv measured after 24 hrs by LC-MS/MS analysis; format: ADME, organism-based; details: male, Sprague-Dawley, in vivo
Mus musculus [9] = assay: (§4) Anti-inflammatory activity in LPS-induced male C57BL/6 mouse model of acute […] injury assessed as inhibition of CCL2 mRNA expression at 2 to 6 mg/kg, IG preadministered with compound for 7 days followed by LPS administration and measured after 24 hrs by RT-PCR analysis; format: functional, organism-based; details: dose 2-6 mg/kg, time 8.0 day
Mus musculus [10] = assay: Anti-inflammatory activity in LPS-induced male C57BL/6 mouse model of acute […] injury assessed as inhibition of CXCL9 mRNA expression at 2 to 6 mg/kg, IG preadministered with compound for 7 days followed by LPS administration and measured after 24 hrs by RT-PCR analysis; format: functional, organism-based; details: dose 2-6 mg/kg, time 8.0 day
Mus musculus [11] = assay: as §3, with “interstitial edema” for “IL-1beta level”, “lung” for “BALF”, “H and E staining based histopathological analysis” for “ELISA”; format: functional, organism-based; details: dose 2-6 mg/kg, time 8.0 day
Mus musculus [12] = assay: Anti-inflammatory activity in LPS-induced male C57BL/6 mouse model of acute […] injury assessed as reduction in MPO level in BALF at 2 to 6 mg/kg, IG preadministered with compound for 7 days followed by LPS administration and measured after 24 hrs by ELISA; format: functional, organism-based; details: dose 2-6 mg/kg, time 8.0 day
[13] = Tmax in male Sprague-Dawley rat at 10 mg/kg, iv measured after 24 hrs by LC-MS/MS analysis; format: ADME, organism-based; details: male, Sprague-Dawley, in vivo, read-out: Tmax (converted)
Mus musculus [14] = assay: as §4, with “absence” for “inhibition”, “lesion in lung parenchyma” for “CCL2 mRNA expression”, “H and E staining based histopathological” for “RT-PCR”; format: functional, organism-based; details: dose 2-6 mg/kg, time 8.0 day
Mus musculus [15] = assay: as §3, with “lung permeability by measuring tight junction associated proteins” for “IL-1beta level in BALF”, “immunofluorescence analysis” for “ELISA”; format: functional, organism-based; details: dose 2-6 mg/kg, time 8.0 day
Mus musculus [16] = assay: as §2, with “lymphocytes” for “neutrophil”; format: functional, organism-based; details: dose 2-6 mg/kg, time 8.0 day
[17] = AUC (0 to 24 hrs) in male Sprague-Dawley rat at 10 mg/kg, iv measured after 24 hrs by LC-MS/MS analysis; format: ADME, organism-based; details: in vivo
Mus musculus [18] = assay: Anti-inflammatory activity in LPS-induced male C57BL/6 mouse model of acute […] injury assessed as inhibition of CXCL10 mRNA expression at 2 to 6 mg/kg, IG preadministered with compound for 7 days followed by LPS administration and measured after 24 hrs by RT-PCR analysis; format: functional, organism-based; details: dose 2-6 mg/kg, time 8.0 day
[19] = molecular target: Voltage-gated inwardly rectifying potassium channel KCNH2 (Homo sapiens, UniProt Q12809); assay: Inhibition of human ERG by PatchXpress analysis; format: toxicity
Sequence of Voltage-gated inwardly rectifying potassium channel KCNH2 (Q12809 whole entry): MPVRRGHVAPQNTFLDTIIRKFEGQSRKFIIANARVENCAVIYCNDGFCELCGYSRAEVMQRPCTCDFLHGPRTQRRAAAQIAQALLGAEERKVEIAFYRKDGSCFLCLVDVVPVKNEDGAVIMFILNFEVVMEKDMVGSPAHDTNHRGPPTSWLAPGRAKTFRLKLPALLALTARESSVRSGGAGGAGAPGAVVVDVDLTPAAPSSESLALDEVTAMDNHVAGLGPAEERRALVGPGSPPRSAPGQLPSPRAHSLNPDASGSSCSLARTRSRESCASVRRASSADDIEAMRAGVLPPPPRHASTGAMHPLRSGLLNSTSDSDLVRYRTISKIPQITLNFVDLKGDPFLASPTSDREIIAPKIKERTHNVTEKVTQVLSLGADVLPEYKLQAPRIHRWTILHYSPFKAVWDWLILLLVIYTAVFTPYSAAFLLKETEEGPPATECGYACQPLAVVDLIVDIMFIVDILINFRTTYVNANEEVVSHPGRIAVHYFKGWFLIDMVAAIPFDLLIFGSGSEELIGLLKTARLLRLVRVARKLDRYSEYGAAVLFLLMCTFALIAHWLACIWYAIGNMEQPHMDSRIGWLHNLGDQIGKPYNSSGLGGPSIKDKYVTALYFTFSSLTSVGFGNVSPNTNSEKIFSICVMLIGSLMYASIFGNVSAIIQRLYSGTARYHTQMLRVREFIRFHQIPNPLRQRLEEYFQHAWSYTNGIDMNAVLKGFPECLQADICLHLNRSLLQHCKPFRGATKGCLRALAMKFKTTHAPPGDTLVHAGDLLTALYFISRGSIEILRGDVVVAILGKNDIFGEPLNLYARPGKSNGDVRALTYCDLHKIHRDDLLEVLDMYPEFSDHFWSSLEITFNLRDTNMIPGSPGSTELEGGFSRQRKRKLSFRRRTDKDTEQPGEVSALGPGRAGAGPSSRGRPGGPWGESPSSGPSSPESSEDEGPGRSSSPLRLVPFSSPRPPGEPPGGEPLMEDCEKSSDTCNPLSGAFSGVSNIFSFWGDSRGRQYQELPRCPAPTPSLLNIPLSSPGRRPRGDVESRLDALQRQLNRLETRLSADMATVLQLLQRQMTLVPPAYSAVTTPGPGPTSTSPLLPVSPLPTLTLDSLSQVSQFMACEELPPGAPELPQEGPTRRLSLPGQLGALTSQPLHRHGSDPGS

Mus musculus [20] = assay: Anti-inflammatory activity in LPS-induced male C57BL/6 mouse model of acute […] injury assessed as reduction in infiltration of immune cells by measuring decrease in WBC count at 2 to 6 mg/kg, IG preadministered with compound for 7 days followed by LPS administration and measured after 24 hrs; format: functional, organism-based; details: dose 2-6 mg/kg, time 8.0 day
Mus musculus [21] = assay: Anti-inflammatory activity in LPS-induced male C57BL/6 mouse model of acute […] injury assessed as inhibition of CXCL1 mRNA expression at 2 to 6 mg/kg, IG preadministered with compound for 7 days followed by LPS administration and measured after 24 hrs by RT-PCR analysis; format: functional, organism-based; details: dose 2-6 mg/kg, time 8.0 day
[22] = Cmax in male Sprague-Dawley rat at 10 mg/kg, iv measured after 24 hrs by LC-MS/MS analysis; format: ADME, organism-based; details: male, Sprague-Dawley, in vivo, read-out: Cmax
Mus musculus [23] = assay: Anti-inflammatory activity in LPS-induced male C57BL/6 mouse model of acute […] injury assessed as reduction in dsDNA level in BALF at 2 to 6 mg/kg, IG preadministered with compound for 7 days followed by LPS administration and measured after 24 hrs by ELISA; format: functional, organism-based; details: dose 2-6 mg/kg, time 8.0 day
[24] = Stability in simulated gastric fluid assessed as half-life; format: physicochemical
P2Y purinoceptor 12 = P2Y purinoceptor 12 (Homo sapiens, UniProt Q9H244); assay: Antagonist activity at human P2Y12R stably expressed in HEK293 cells assessed as inhibition of MeSADP-induced cAMP accumulation preincubated with compound for 30 mins followed by MeSADP addition by cAMP-GloTM assay; format: functional, cell-based
Sequence of P2Y purinoceptor 12 (Q9H244 whole entry): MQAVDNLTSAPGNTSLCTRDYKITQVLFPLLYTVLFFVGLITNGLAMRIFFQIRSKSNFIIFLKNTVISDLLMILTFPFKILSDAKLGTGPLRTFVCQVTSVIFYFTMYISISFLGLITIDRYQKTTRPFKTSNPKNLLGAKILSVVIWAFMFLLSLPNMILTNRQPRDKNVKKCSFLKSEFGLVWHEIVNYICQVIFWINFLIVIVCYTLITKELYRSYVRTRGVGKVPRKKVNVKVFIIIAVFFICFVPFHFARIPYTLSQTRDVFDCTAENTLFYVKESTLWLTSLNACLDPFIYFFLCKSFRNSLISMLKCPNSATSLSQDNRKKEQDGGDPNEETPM

[25] = AUC (0 to 24 hrs) in male Sprague-Dawley rat at 20 mg/kg, po measured after 24 hrs by LC-MS/MS analysis; format: ADME, organism-based; details: male, Sprague-Dawley, in vivo
[26] = Half-life in male Sprague-Dawley rat at 20 mg/kg, po measured after 24 hrs by LC-MS/MS analysis; format: ADME, organism-based; details: male, Sprague-Dawley, in vivo
Mus musculus [27] = assay: Anti-inflammatory activity in LPS-induced male C57BL/6 mouse model of acute […] injury assessed as reduction in TNF-alpha level in BALF at 2 to 6 mg/kg, IG preadministered with compound for 7 days followed by LPS administration and measured after 24 hrs by ELISA; format: functional, organism-based; details: dose 2-6 mg/kg, time 8.0 day
Mus musculus [28] = assay: Anti-inflammatory activity in LPS-induced male C57BL/6 mouse model of acute […] injury assessed as inhibition of CCL2 release at 2 to 6 mg/kg, IG preadministered with compound for 7 days followed by LPS administration and measured after 24 hrs by ELISA; format: functional, organism-based; details: dose 2-6 mg/kg, time 8.0 day

With `O=C(O)CCC(=O)N1N=C(c2ccc[nH]2)CC1c1cnc2ccccc2c1` (centres undefined) the Tmax [1] was 0.767 h, the Activity (Mus musculus [2]) was “Active” and the Cmax [3] was 2940 ng/mL. The Activity (Mus musculus [4]) was “Active”, the Activity (Mus musculus [5]) was “Active” and the Activity (Mus musculus [6]) was “Active”. For the same molecule, the Activity (Mus musculus [7]) was “Active”, the half-life [8] was 1.5 h and the Activity (Mus musculus [9]) was “Active”. For the same molecule, the Activity (Mus musculus [10]) was “Active”, the Activity (Mus musculus [11]) was “Active” and the Activity (Mus musculus [12]) was “Active”. The Tmax [13] was 0.467 h, the Activity (Mus musculus [14]) was “Active” and the Activity (Mus musculus [15]) was “Active”. For the same molecule, the Activity (Mus musculus [16]) was “Active”, the AUC [17] was 1956 ng·h/mL and the Activity (Mus musculus [18]) was “Active”. The IC50 [19] was over 50 µM, the Activity (Mus musculus [20]) was “Active” and the Activity (Mus musculus [21]) was “Active”. For the same molecule, the Cmax [22] was 1410 ng/mL, the Activity (Mus musculus [23]) was “Active” and the half-life [24] was over 50 h. The Activity (P2Y purinoceptor 12) was “inactive”, the AUC(0-t) at 24 h [25] was 2980 ng·h/mL and the half-life [26] was 5.2 h. For the same molecule, the Activity (Mus musculus [27]) was “Active” and the Activity (Mus musculus [28]) was “Active”.
